Assay results reported in publication PMC4366281 (Nature chemical biology, 2015).

Target: T1, MtbVKOR (Mycobacterium tuberculosis, UniProt I6X5W1)
T1 sequence (I6X5W1 1-210): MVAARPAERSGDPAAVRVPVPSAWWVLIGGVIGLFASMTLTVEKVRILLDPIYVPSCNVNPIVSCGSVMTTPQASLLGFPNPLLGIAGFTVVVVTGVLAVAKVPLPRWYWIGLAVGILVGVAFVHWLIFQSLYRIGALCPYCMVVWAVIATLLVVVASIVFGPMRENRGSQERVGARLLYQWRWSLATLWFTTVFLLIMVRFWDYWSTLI
Test: HTS agar 384-well X-Gal assay, MtbVKOR-complemented E. coli dsbB null strain
Format: cell-based
Conditions: agar assay / re-test

Structure (SMILES): O=C1c2ccccc2C(=O)C1c1ccc(Br)cc1 [brominedione]
- inhibition of MtbVKOR-dependent E. coli strain: specific hit
